From ChEMBL document CHEMBL1909046, “DrugMatrix in vitro pharmacology data”

How the values were obtained:
[1] = molecular target: T1, Vasoactive intestinal polypeptide receptor 1 (Homo sapiens, UniProt P32241); format: cell membranes, Membrane; conditions: ht-29; further: in other assays of this panel Not Active means under 50% inhibition at 10 µM
T1 sequence (P32241 whole entry): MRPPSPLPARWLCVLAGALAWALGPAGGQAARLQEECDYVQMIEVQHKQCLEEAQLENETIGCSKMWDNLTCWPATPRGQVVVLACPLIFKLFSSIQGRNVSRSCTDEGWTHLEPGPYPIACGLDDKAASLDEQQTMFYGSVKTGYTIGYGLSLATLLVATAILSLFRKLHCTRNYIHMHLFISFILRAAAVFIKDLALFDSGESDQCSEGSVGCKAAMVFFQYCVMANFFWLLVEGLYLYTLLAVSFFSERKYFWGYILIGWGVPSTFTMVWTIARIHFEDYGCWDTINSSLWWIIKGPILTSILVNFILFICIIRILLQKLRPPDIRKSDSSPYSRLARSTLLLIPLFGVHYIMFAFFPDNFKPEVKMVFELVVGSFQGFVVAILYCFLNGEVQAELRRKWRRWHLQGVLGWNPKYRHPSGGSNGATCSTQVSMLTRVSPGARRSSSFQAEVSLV

[2] = molecular target: Prostaglandin G/H synthase 1 (Homo sapiens, UniProt P23219); assay: biochemical; format: tissue-based, Platelet; conditions: platelet;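 further: inhibition of COX-1 enzyme activity, with arachidonic acid supplied as substrate; in other assays of this panel Not Active means under 50% inhibition at 10 µM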
Prostaglandin G/H synthase 1, sequence (P23219 whole entry): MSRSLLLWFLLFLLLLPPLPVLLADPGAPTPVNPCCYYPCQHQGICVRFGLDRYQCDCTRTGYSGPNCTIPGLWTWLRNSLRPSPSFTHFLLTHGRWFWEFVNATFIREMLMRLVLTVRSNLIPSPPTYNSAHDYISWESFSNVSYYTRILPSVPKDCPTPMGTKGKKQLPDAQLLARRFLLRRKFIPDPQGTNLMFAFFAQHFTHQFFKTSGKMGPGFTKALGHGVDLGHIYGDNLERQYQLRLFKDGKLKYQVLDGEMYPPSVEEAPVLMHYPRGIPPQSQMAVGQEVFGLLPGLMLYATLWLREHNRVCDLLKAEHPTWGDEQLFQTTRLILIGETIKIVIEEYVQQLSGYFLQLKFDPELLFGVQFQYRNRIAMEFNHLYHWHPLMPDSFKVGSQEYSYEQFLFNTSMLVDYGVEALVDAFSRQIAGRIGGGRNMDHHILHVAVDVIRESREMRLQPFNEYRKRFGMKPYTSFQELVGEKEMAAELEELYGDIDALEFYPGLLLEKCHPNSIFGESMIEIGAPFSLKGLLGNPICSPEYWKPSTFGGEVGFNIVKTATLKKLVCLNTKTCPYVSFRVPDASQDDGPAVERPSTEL

Carbonic anhydrase 2 = Carbonic anhydrase 2 (Homo sapiens, UniProt P00918); assay: DRUGMATRIX: Carbonic Anhydrase II enzyme inhibition (substrate: 4-Nitrophenyl acetate (4-NPA)); format: tissue-based, Erythrocyte; conditions: erythrocyte; Not Active = under 50% inhibition at 10 µM
Neutrophil elastase = molecular target: T2, Neutrophil elastase (Homo sapiens, UniProt P08246); format: tissue-based;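 further: inhibition of neutrophil elastase enzyme activity, measured with a p-nitroanilide-linked peptide substrate; in other assays of this panel Not Active means under 50% inhibition at 10 µM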
T2 sequence (P08246 whole entry): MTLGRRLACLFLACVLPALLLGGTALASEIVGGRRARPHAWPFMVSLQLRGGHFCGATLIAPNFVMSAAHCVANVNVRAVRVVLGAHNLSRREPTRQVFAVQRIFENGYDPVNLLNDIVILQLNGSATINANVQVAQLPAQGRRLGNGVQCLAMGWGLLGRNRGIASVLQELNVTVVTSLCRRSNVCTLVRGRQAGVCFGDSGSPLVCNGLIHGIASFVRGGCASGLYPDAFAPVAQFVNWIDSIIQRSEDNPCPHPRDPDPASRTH

[3] = molecular target: Aldo-keto reductase family 1 member B1 (Rattus norvegicus, UniProt P07943); assay: biochemical; format: tissue-based, Lens of camera-type eye;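 further: inhibition of aldose reductase enzyme activity, measured with DL-glyceraldehyde as the substrate; in other assays of this panel Not Active means under 50% inhibition at 10 µM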
[4] = DRUGMATRIX: Imidazoline I2, Central radioligand binding (ligand: [3H] Idazoxan); format: cell membranes, Rattus norvegicus, Wistar, Cerebral cortex, Membrane; conditions: Not Active = under 50% inhibition at 10 µM
Insulin receptor = Insulin receptor (Rattus norvegicus, UniProt P15127); format: cell membranes, Wistar, Liver, Membrane; further: in other assays of this panel Not Active means under 50% inhibition at 10 µM
Insulin receptor, sequence (P15127 27-759 limits assumed): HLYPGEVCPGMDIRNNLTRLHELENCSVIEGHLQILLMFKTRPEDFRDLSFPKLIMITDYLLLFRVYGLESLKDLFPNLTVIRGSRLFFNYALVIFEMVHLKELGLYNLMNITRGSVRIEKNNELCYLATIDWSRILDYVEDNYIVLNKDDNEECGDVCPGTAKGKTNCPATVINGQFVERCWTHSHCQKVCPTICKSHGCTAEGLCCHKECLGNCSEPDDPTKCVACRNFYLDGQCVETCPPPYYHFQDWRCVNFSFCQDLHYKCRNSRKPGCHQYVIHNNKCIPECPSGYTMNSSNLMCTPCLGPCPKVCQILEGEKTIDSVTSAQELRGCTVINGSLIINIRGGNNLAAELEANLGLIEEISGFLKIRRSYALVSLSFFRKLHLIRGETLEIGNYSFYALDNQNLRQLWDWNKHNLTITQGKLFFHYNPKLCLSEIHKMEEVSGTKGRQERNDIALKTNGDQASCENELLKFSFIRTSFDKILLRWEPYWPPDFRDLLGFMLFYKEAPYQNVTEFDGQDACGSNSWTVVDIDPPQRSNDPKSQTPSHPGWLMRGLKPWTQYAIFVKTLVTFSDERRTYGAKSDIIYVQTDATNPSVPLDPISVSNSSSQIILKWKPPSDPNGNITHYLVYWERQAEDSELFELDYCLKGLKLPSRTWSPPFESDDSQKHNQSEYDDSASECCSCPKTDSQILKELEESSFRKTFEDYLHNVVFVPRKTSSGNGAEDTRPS
Insulin receptor, sequence (P15127 764-1383 limits assumed): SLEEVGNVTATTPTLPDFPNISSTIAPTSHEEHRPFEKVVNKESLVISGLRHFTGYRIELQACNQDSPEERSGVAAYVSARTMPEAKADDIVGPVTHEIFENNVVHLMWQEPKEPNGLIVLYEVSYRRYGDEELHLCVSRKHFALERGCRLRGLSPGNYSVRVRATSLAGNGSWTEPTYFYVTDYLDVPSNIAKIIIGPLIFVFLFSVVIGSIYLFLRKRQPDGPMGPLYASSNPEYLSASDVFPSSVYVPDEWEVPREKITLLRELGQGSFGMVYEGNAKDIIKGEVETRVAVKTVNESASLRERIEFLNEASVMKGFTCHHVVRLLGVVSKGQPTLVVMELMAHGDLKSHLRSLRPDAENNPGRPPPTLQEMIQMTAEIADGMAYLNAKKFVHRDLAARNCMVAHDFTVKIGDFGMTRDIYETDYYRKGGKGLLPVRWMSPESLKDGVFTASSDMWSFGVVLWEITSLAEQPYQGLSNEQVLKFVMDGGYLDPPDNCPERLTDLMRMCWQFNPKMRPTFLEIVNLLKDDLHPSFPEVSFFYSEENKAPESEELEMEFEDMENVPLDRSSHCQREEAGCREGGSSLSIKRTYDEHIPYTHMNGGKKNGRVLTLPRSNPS

| SMILES | IC50 [1] | IC50 [2] | IC50 (Carbonic anhydrase 2) | IC50 (Neutrophil elastase) | IC50 [3] | IC50 [4] | Ki [4] | IC50 (Insulin receptor) | IC50 ([4]; read-out: IC50) | Ki ([4]; read-out: Ki) |
| --- | --- | --- | --- | --- | --- | --- | --- | --- | --- | --- |
| O=C(O)CO [GLYCOLIC ACID] | Not Active | Not Active | Not Active | Not Active | Not Active | Not Active | Not Active | Not Active | – | – |
| COc1cc(NC(C)CCCN)c2ncccc2c1 (stereo not given) [PRIMAQUINE] | Not Active | Not Active | Not Active | Not Active | Not Active | Not Active | Not Active | Not Active | – | – |
| COc1ccc(Cl)cc1C(=O)NCCc1ccc(S(=O)(=O)NC(=O)NC2CCCCC2)cc1 [GLYBURIDE] | Not Active | Not Active | Not Active | Not Active | Not Active | Not Active | Not Active | Not Active | – | – |
| CCO [ALCOHOL] | Not Active | Not Active | Not Active | Not Active | Not Active | Not Active | Not Active | Not Active | – | – |
| CC(C)(c1ccc(O)cc1)c1ccc(O)cc1 [BISPHENOL A] | Not Active | Not Active | Not Active | Not Active | Not Active | Not Active | Not Active | Not Active | – | – |
| CC12CCC(CC1=O)C2(C)C (stereo not given) [CAMPHOR] | Not Active | Not Active | Not Active | Not Active | Not Active | Not Active | Not Active | Not Active | – | – |
| O=C(O)c1ccccc1 [BENZOIC ACID] | Not Active | Not Active | Not Active | Not Active | Not Active | Not Active | Not Active | Not Active | – | – |
| Oc1ncnc2[nH]ncc12 [ALLOPURINOL] | Not Active | Not Active | Not Active | Not Active | Not Active | Not Active | Not Active | Not Active | – | – |
| NC(=O)CN1CCCC1=O | Not Active | Not Active | Not Active | Not Active | Not Active | Not Active | Not Active | Not Active | – | – |
| C=CCO [ALLYL ALCOHOL] | Not Active | Not Active | Not Active | Not Active | Not Active | Not Active | Not Active | Not Active | – | – |
| CCN1CCN(C(=O)N[C@@H](C(=O)N[C@@H]2C(=O)N3[C@@H]2SC(C)(C)[C@@H]3C(=O)O)c2ccccc2)C(=O)C1=O [PIPERACILLIN] | Not Active | Not Active | Not Active | Not Active | Not Active | Not Active | Not Active | Not Active | – | – |
| CCCCCCNC(=O)n1cc(F)c(=O)[nH]c1=O [CARMOFUR] | Not Active | Not Active | Not Active | Not Active | Not Active | Not Active | Not Active | Not Active | – | – |
| CCN(CCO)CCCC(C)Nc1ccnc2cc(Cl)ccc12 (stereo not given) [HYDROXYCHLOROQUINE] | Not Active | Not Active | Not Active | Not Active | Not Active | – | – | Not Active | 479 nM | 319 nM |
| Clc1cc(Cl)c(OCC#CI)cc1Cl [HALOPROGIN] | Not Active | Not Active | Not Active | Not Active | Not Active | Not Active | Not Active | Not Active | – | – |
| O=c1[nH]cnc2c1ncn2[C@H]1CC[C@@H](CO)O1 [DIDANOSINE] | Not Active | Not Active | Not Active | Not Active | Not Active | Not Active | Not Active | Not Active | – | – |
